Results: US20230167068A1, “BENZOPYRAZOLE COMPOUND” (MEDSHINE DISCOVERY INC., priority 2019, published 2023)

Legend:
[1] = test system: hMMP-1 promoter reporter gene in Hela cells (GR transcription repression); assay: hMMP1 transcription repression activity, luciferase reporter gene screening system (hMMP1 GR transcription repression test); format: cell-based; settings: Homo sapiens; for Emax: HeLa, maximum effect value, positive control 1000 nM dexamethasone, read-out: TR (hMMP1 transcription inhibition activity) Effect; for IC50: absolute IC50, HeLa hMMP-1/luciferase cells, 10 nM PMA, 18 h, max concentration 1000 nM, read-out: TR (hMMP1 transcription inhibition activity) IC50
From the text: Human MMP-1 promoter region (containing two AP-1 binding sites and two PEA3 sites, a total of 249bp, GenBank catalog #AF023338) was cloned into the upstream of luciferase reporter gene. The hMMP-1 promoter reporter gene was constructed and transfected into Hela cells so that luciferase production could be easily detected. A stable recombinant hMMP-⅟luciferase cell line was used for the development and validation of this experiment.
• [0377] 1) All the culture media were carefully aspirated, and the cell layer was rinsed gently with an appropriate amount of DPBS, and then aspirated. • [0378] 2) An appropriate amount of 0.05% Typsine EDTA was added and incubated in a CO2 incubator for 3-5 minutes to digest the cells. • [0379] 3) The cells were resuspended with an appropriate amount of cell culture medium. • [0380] 4) The required amount of cells were calculated. The cell concentration was 5x10^3 cells/well. • [0381] 5) The cell suspension was diluted with appropriate cell culture medium. • [0382] 6) The cell suspension was dispensed into a disposable sterile loading slot. • [0383] 7) Inoculated 30µL per well into a 384-well plate. • [0384] 8) The cell plate was placed in a 37° C. 5% CO2 incubator for 18-24 hours.
The final DMSO concentration was 0.1%. PMA needs to be protected from light during use.
hMMP1 GR transcription repression activity test • [0395] 1) Inoculated cells: Fresh cells were inoculated into 384 white experimental plates at 5x10^3 cells/30µL/well, and incubated in a 5% CO2 incubator at 37° C. for 24 hours. • [0396] 2) Compound preparation: The compound plate was prepared before the experiment, and the reference compound (dexamethasone) and the tested compound of 10x concentration were prepared. Finally, the experimental plate of 10× concentration compound was obtained. • [0397] 3) Added compound: 3.3 µL of 10x compound was transferred with Bravo and added to cell plate. Incubated for 18 hours in a 5% CO2 incubator at 37° C. • [0398] 4) 30 µL of Bright-Glo fluorescent detection reagent was transferred to the cell plate. • [0399] 5) Centrifugal incubation for 2 minutes. • [0400] 6) The fluorescence value was measured with the Envision plate reader.
Positive Control: 10 nM PMA + 1000 nM dexamethasone (0.1% DMSO)
Negative control: 10 nM PMA (0.1% DMSO)
(§1) Test compound: Maximum concentration of 1000 nM, 4-fold dilution, 10 wells in total, repeated.
(§2) Dexamethasone: Maximum concentration of 1000 nM, 4-fold dilution, 10 wells in total, repeated.
The graphing software GraphPad Prism5 was used to create the concentration curves of the test compounds and calculate the IC50 values.

[2] = test system: MMTV promoter luciferase reporter in HeLa cell line (GR transcription activation); assay: MMTV transcription activation activity, luciferase reporter gene screening system (MMTV_GR transcription activation experiment); format: cell-based; settings: Homo sapiens; for Emax: HeLa, maximum effect value, positive control 1000 nM dexamethasone, read-out: TA (MMTV transcription activation activity) Effect; for EC50: absolute EC50, HeLa MMTV-luciferase cells, 18 h, max concentration 1000 nM, read-out: TA (MMTV transcription activation activity) EC50
From the text: The promoter of mouse mammary tumor virus (MMTV) contains specific binding sites for activating GRs (GREs). To determine the activity of the compounds, a reporter gene (luciferase) was inserted after the MMTV promoter, and this construct was expressed in a stable manner in the genome of the HeLa cell line. MMTV promoter was activated by the test compounds to induce the expression of luciferase, and its activity was detected by luminescence measurement.
• [0442] 1) All the culture media were carefully aspirated, the cell layer was rinsed gently with an appropriate amount of DPBS, and then aspirated. • [0443] 2) An appropriate amount of 0.05% Typsine EDTA was added and incubated in a CO2 incubator for 3-5 minutes to digest the cells. • [0444] 3) The cells were resuspended with an appropriate amount of cell culture medium. • [0445] 4) The amount of cells required was calculated, and the cell concentration was 4×10^3 cells/well. • [0446] 5) The cell suspension was diluted with appropriate cell culture medium. • [0447] 6) Cell suspension was dispensed into a disposable sterile loading slot. • [0448] 7) Inoculated 30 µL per well into a 384-well plate. • [0449] 8) The cell plate was placed in a 37° C. 5% CO2 incubator for 18-24 hours.
Compounds were diluted with DMSO to 1 mM, 0.25 mM, 0.0625 mM, 0.015625 mM, 0.0039 mM, 0.0009765 mM, 0.000244 mM, 0.000061 mM, 0.00001526 mM and 0.0000038125 mM, then diluted 25-fold with serum culture medium treated with activated carbon, and finally 4x concentration compound experimental plate was obtained, prepared before use.
The final DMSO experimental concentration was 0.1%.
MMTV_GR transcription activation activity experiment • [0458] 1) Inoculated cells: Fresh cells were inoculated into 384 white transparent bottom experimental plates at 4×10^3 cells/30 µL/well, and incubated at 37° C. 5% CO2 incubator for 24 hours. • [0459] 2) Compound preparation: The compound plate was prepared before the experiment, and the reference compound (dexamethasone) and the test compound of 4x concentration were prepared. Finally, the experimental plate of 4x concentration compound was obtained. • [0460] 3) Added compound: 10 µL of 4x compound was transferred with Bravo and added to cell plate. Incubated for 18 hours in a 37° C. 5% CO2 incubator. • [0461] 4) 30 µL of Bright-Glo fluorescent detection reagent was transferred to the cell plate. • [0462] 5) Centrifugal incubation for 2 minutes. • [0463] 6) The fluorescence value was measured with the Envision plate reader.
Positive control: 1000 nM dexamethasone (0.1% DMSO)
Negative control: 0.1% DMSO
as §1, §2
The graphing software GraphPad Prism5 was used to create the concentration curves of the tested compounds and calculate the IC50 values.

Compound `C[C@H](NC(=O)C(C)(F)F)[C@H](Oc1ccc2c(cnn2-c2ccc3c(c2)CCCO3)c1)c1cc(F)cc(F)c1` [WX002] has an Emax [1] of 100%, an IC50 [1] of 0.318 nM and an Emax [2] of 76%. It also gave an EC50 [2] of 2.07 nM.

Compound `C[C@H](NC(=O)C(C)(F)F)[C@H](Oc1ccc2c(cnn2-c2ccc3nccn3c2)c1)c1cc(F)cc(F)c1` [WX003] has an Emax [1] of 95.1%, an IC50 [1] of 0.08 nM and an Emax [2] of 91.4%. It also gave an EC50 [2] of 0.229 nM.

In the case of `CC(C)[C@H](NC(=O)C(C)(F)F)[C@H](Oc1ccc2c(cnn2-c2ccc3nccn3c2)c1)c1ccccc1` [WX004], the Emax [1] is reported as 78.8%, the IC50 [1] is reported as 3.58 nM and the Emax [2] is reported as 63.7%. The EC50 [2] was 5.86 nM.

`CC(C)[C@H](NC(=O)C(C)(F)F)[C@H](Oc1ccc2c(cnn2-c2ccc3nncn3c2)c1)c1cc(F)cc(F)c1` [WX017] showed an Emax [1] of 86%, an IC50 [1] of 0.9 nM and an Emax [2] of 81.3%. For the same compound, the EC50 [2] was 2.56 nM.

`CC(C)[C@H](NC(=O)C(C)(F)F)[C@H](Oc1ccc2c(cnn2-c2ccc3nncn3c2)c1)c1ccccc1` [WX018] was tested, and the Emax [1] was 83.7%, the IC50 [1] was 6.1 nM and the Emax [2] was 69.4%. The EC50 [2] was 12.3 nM.

Work on `C[C@H](NC(=O)C(C)(F)F)[C@H](Oc1ccc2c(cnn2-c2ccc3nncn3c2)c1)c1cc(F)cc(F)c1` [WX019] yielded an Emax [1] of 94.8%, an IC50 [1] of 0.171 nM and an Emax [2] of 75.2%. For the same compound, the EC50 [2] was 0.94 nM.

`C[C@H](NC(=O)C(C)(F)F)[C@H](Oc1ccc2c(cnn2-c2ccc3ncnn3c2)c1)c1cc(F)cc(F)c1` [WX034] gave an Emax [1] of 97.1%, an IC50 [1] of 3.22 nM and an Emax [2] of 89.2%. For the same compound, the EC50 [2] was 3.2 nM.

For `C[C@H](NC(=O)C(C)(F)F)[C@H](Oc1ccc2c(cnn2-c2ccc3nnnn3c2)c1)c1cc(F)cc(F)c1` [WX035], the Emax [1] was 94.6%, the IC50 [1] was 2.15 nM and the Emax [2] was 82.5%. The EC50 [2] was 5.59 nM.

`C[C@H](NC(=O)C(C)(F)F)[C@H](Oc1ccc2c(cnn2-c2cnn(C)c2)c1)c1ccccc1` [WX043] showed an Emax [1] of 93.3%, an IC50 [1] of 1.21 nM and an Emax [2] of 72.8%. For the same compound, the EC50 [2] was 5.03 nM.

`C[C@H](NC(=O)C(C)(F)F)[C@H](Oc1ccc2c(cnn2-c2cn(C)nn2)c1)c1cc(F)cc(F)c1` [WX051] was tested, and the Emax [1] was 95.4%, the IC50 [1] was 3.45 nM and the Emax [2] was 70.8%. It also gave an EC50 [2] of 4.93 nM.
